US20110319362A1, “STAT3 LIGANDS AND THERAPEUTIC USES THEREOF” (priority 2008, published 2011)
Where two headings read alike, the source gives them in different places.

What was measured:
[1] = system: MDA-MB-468 cancer cell line; assay: Cell growth assay (WST-8); type: cell-based; details: Homo sapiens, MDA-MB-468, 96 h; WST-8, 4 days; read-out: Inhibition of cell growth IC50, MDA-MB-468 cancer cell line
Summary of the method: (§1)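 Cells (3000–4000/well) grown 4 days with varied compound concentrations, then WST-8 dye added for 1–3 h and absorbance read at 450 nm. Growth inhibition expressed as sample-to-control absorbance ratio.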

[2] = system: MDA-MB-231 cancer cell line; assay: Cell growth assay (WST-8); type: cell-based; details: Homo sapiens, MDA-MB-231, 96 h; WST-8, 4 days; read-out: Inhibition of cell growth IC50, MDA-MB-231 cancer cell line
Summary of the method: as §1

[3] = biological target: T1, STAT3 protein (Homo sapiens, UniProt P40763); assay: In vitro competitive STAT3 binding assay (fluorescence polarization)
T1 construct: human STAT3 protein (residues 122-722) fused to His-tag; His-tag
Description: To quantitatively determine the binding affinities of STAT3 inhibitors to STAT3 protein, a sensitive and quantitative in vitro binding assay was developed based upon fluorescence polarization (FP) method. For this FP assay, 5-carboxyfluorescein (5-Fam) was coupled to a phosphopeptide (phospho-Tyr-Leu-Pro-Gln-Thr-Val-amide) with two beta-alanine and one glycine residues as the spacer between 5-Fam and the phosphopeptide to obtain 5-Fam-beta-Ala-beta-Ala-Gly-phospho-Tyr-Leu-Pro-Gln-Thr-Val-amide as the fluorescently tagged tracer, which was named as STT2 peptide. […] The recombinant human STAT3 protein (residues 122-722) fused to His-tag was stable and soluble.
Competitive binding experiments were carried out using 150 nM of STAT3 protein and 5 nM of STT2 peptide with different concentrations of a tested STAT3 inhibitor. For each experiment, two controls were included. One control contained STAT3 protein and STT2 peptide, and the second control contained STT2 peptide only. The polarization values were measured after 2-3 hours of incubation using an ULTRA READER (Tecan U.S. Inc., Research Triangle Park, N.C.). IC50 values, the inhibitor concentration at which 50% of the fluorescently tagged STT2 peptide is displaced by STAT3 inhibitors, was determined from a plot using nonlinear least-squares analysis using GRAPHPAD PRISM software (GraphPad Software, Inc., San Diego, Calif.). […]

[4] = FP competitive binding, fluorescently tagged STT2 peptide tracer, read-out: Binding affinities to STAT3 IC50

T1 sequence (P40763 122-722): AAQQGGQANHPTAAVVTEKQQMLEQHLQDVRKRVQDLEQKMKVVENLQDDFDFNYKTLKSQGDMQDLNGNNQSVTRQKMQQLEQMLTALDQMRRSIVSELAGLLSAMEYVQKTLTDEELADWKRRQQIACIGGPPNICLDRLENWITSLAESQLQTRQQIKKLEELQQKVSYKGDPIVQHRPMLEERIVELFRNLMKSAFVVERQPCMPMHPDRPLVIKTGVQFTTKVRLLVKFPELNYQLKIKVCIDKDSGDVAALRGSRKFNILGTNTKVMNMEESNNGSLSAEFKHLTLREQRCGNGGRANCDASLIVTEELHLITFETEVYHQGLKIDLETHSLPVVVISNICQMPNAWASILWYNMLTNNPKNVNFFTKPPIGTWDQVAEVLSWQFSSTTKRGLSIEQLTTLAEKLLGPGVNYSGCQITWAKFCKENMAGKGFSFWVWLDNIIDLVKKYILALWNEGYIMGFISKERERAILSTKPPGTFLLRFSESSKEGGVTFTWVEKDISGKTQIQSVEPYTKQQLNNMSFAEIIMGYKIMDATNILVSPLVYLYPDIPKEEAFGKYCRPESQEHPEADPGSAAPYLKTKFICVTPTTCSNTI

Row | SMILES | IC50 [1] [µM] | IC50 [2] [µM] | IC50 [3, 4] [µM] | IC50 [3] [µM]
1 | CC(=O)N1CCC2CC[C@@H](C(=O)N[C@@H](CCC(N)=O)C(=O)NCc3ccccc3)N2C(=O)[C@@H](NC(=O)[C@@H](N)Cc2ccc(OP(=O)(O)O)cc2)C1 (stereo partly drawn) | > 100 | > 50 | < 5 | 
2 | CCCNC(=O)[C@@H]1CC[C@@H]2CCCC[C@H](NC(=O)[C@H](Cc3ccc(OP(=O)(O)O)cc3)NC(=O)OCc3ccccc3)C(=O)N21 [Example 15] | > 100 | > 30 | < 30 | 
3 | CC(=O)N[C@@H](Cc1ccc(OCC(=O)O)cc1)C(=O)N[C@H]1CCCC[C@H]2CC[C@@H](C(=O)N[C@@H](CCC(N)=O)C(=O)NCc3ccccc3)N2C1=O [Example 7] | > 100 | > 100 | > 50 | 
4 | CCOC(=O)COc1ccc(C[C@H](NC(C)=O)C(=O)N[C@H]2CCCCC3CC[C@@H](C(=O)N[C@@H](CCC(N)=O)C(=O)NCc4ccccc4)N3C2=O)cc1 (stereo partly drawn) | > 100 | > 100 | > 100 | 
5 | CCCCCCCCCCCCCCCC(=O)N[C@H](Cc1ccc(OCP(=O)(O)O)cc1)C(=O)N[C@H]1CCCCC2CC[C@@H](C(=O)N[C@@H](CCC(N)=O)C(=O)NCc3ccccc3)N2C1=O (stereo partly drawn) | < 50 | < 100 |  | < 5
6 | NCCCCNC(=O)[C@@H]1CC[C@@H]2CCCC[C@H](NC(=O)[C@H](Cc3ccc(OP(=O)(O)O)cc3)NC(=O)OCc3ccccc3)C(=O)N21 [Example 14] | > 100 | > 100 | < 10 | 
7 | CN(C)[C@@H](Cc1ccc(OP(=O)(O)O)cc1)C(=O)N[C@H]1CCCCC2CC[C@@H](C(=O)N[C@@H](CNC(=N)N)C(=O)NCc3ccccc3)N2C1=O (stereo partly drawn) | > 100 | > 50 | < 100 | 
8 | CC(=O)N[C@@H](Cc1ccc(O)cc1)C(=O)N[C@H]1CCCC[C@H]2CC[C@@H](C(=O)N[C@@H](CCC(N)=O)C(=O)NCc3ccccc3)N2C1=O [Example 6] | > 100 | > 100 | > 100 | 
9 | NCCOCCOCCOCCOCCC(=O)N[C@@H](Cc1ccc(OP(=O)(O)O)cc1)C(=O)N[C@H]1CCCCC2CC[C@@H](C(=O)N[C@@H](CCC(N)=O)C(=O)NCc3ccccc3)N2C1=O (stereo partly drawn) | > 100 | > 100 | < 5 | 
10 | C[C@H](NC(=O)[C@@H]1CC[C@@H]2CCCC[C@H](NC(=O)[C@@H](N)Cc3ccc(OC(C(=O)O)C(=O)O)cc3)C(=O)N21)C(=O)NCc1ccccc1 [Example 10] | > 100 | > 50 | > 100 | 
11 | CP(=O)(O)Cc1ccc(CCC(=O)N[C@H]2CCCCC3CC[C@@H](C(=O)N[C@@H](CCC(N)=O)C(=O)NCc4ccccc4)N3C2=O)cc1 (stereo partly drawn) | > 100 | > 100 | > 100 | 
12 | CCCCCCCCCCCCCCCCN1CCN(CCC(=O)N[C@@H](Cc2ccc(OP(=O)(O)O)cc2)C(=O)N[C@H]2CCCCC3CC[C@@H](C(=O)NCCCCN(C)C)N3C2=O)CC1 (stereo partly drawn) | < 50 | < 100 | < 20 | 
13 | CCCCCCCCCCCCCCCCN1CCN(CCC(=O)N[C@@H](Cc2ccc(OP(=O)(O)O)cc2)C(=O)N[C@H]2CCCCC3CC[C@@H](C(=O)NCCc4cnc[nH]4)N3C2=O)CC1 (stereo partly drawn) | < 10 | < 10 | < 10 | 
14 | CN[C@@H](Cc1ccc(OC(C(=O)O)C(=O)O)cc1)C(=O)N[C@H]1CCCCC2CC[C@@H](C(=O)N[C@@H](CCCN)C(=O)NCc3ccccc3)N2C1=O (stereo partly drawn) | > 100 | > 100 | > 10 | 
15 | CN[C@@H](Cc1ccc(OP(=O)(O)O)cc1)C(=O)N[C@H]1CCCCC2CC[C@@H](C(=O)N[C@@H](CCC(N)=O)C(=O)NCc3ccccc3)N2C1=O (stereo in doubt) [Example 40] | > 100 | > 30 | < 1 | 
16 | CCOC(=O)C(Oc1ccc(C[C@@H](C(=O)N[C@H]2CCCCC3CC[C@@H](C(=O)N[C@@H](Cc4c[nH]cn4)C(=O)NCc4ccccc4)N3C2=O)N(C)C)cc1)C(=O)OCC (stereo partly drawn) | > 100 | > 100 | > 10 | 
17 | CN[C@@H](Cc1ccc(OP(=O)(O)O)cc1)C(=O)N[C@H]1CCCCC2CC[C@@H](C(=O)N[C@@H](Cc3c[nH]cn3)C(=O)NCc3ccccc3)N2C1=O (stereo partly drawn) | > 100 | > 50 | < 30 | 

Row | SMILES | IC50 [1] [µM] | IC50 [2] [µM] | IC50 [3, 4] [µM] | IC50 [3] [µM]
18 | NC(=O)CC[C@H](NC(=O)[C@@H]1CCC2CCCC[C@H](NC(=O)c3cc4cc(OP(=O)(O)O)ccc4[nH]3)C(=O)N21)C(=O)NCc1ccccc1 (stereo partly drawn) [Example 57] | > 100 | > 100 |  | < 1
19 | CN(C)[C@@H](Cc1ccc(OC(C(=O)O)C(=O)O)cc1)C(=O)N[C@H]1CCCCC2CC[C@@H](C(=O)N[C@@H](Cc3c[nH]cn3)C(=O)NCc3ccccc3)N2C1=O (stereo partly drawn) | > 100 | > 100 | > 10 | 
20 | NC(=O)CC[C@H](NC(=O)[C@@H]1CCC2CCCC[C@H](NC(=O)[C@H](Cc3ccc(OP(=O)(O)O)cc3)NC(=O)OCc3ccccc3)C(=O)N21)C(=O)NCc1ccccc1 (stereo in doubt) [Example 41] | > 100 | > 50 |  | < 1
21 | CN(C)[C@@H](Cc1ccc(OP(=O)(O)O)cc1)C(=O)N[C@H]1CCCCC2CC[C@@H](C(=O)N[C@@H](Cc3c[nH]cn3)C(=O)NCc3ccccc3)N2C1=O (stereo in doubt) [Example 39] | > 100 | > 100 | < 10 | 
22 | CCCCCCCCCCCCCCCCNC(=O)[C@H](CCC(N)=O)NC(=O)[C@@H]1CCC2CCCC[C@H](NC(=O)[C@@H](N)Cc3ccc(OP(=O)(O)O)cc3)C(=O)N21 (stereo partly drawn) | < 50 | < 50 | > 5 | 
23 | NC(=O)CC[C@H](NC(=O)[C@@H]1CC[C@@H]2CCCC[C@H](NC(=O)CCc3ccc(CP(=O)(O)O)cc3)C(=O)N21)C(=O)NCc1ccccc1 [Example 25] | > 100 | > 100 | > 100 | 
24 | CCCCCCCCCCCCCCCCN1CCN(CCC(=O)N[C@@H](Cc2ccc(OP(=O)(O)O)cc2)C(=O)N[C@H]2CCCCC3CC[C@@H](C(=O)NCCc4cn[nH]c4)N3C2=O)CC1 (stereo partly drawn) | < 20 | < 20 | < 5 | 
25 | N[C@@H](Cc1ccc(OP(=O)(O)O)cc1)C(=O)N[C@H]1CCCCC2CC[C@@H](C(=O)N[C@@H](CCC(=O)NC(c3ccccc3)(c3ccccc3)c3ccccc3)C(=O)NCc3ccccc3)N2C1=O (stereo partly drawn) | < 10 | < 10 | < 10 | 
26 | NC(=O)CC[C@H](NC(=O)[C@@H]1CCC2CCCC[C@H](NC(=O)c3cc4cc(CP(=O)(O)O)ccc4[nH]3)C(=O)N21)C(=O)NCc1ccccc1 (stereo partly drawn) [Example 58] | > 100 | > 100 |  | < 10
27 | NC(=O)CCCNC(=O)[C@@H]1CCC2CCCC[C@H](NC(=O)[C@H](Cc3ccc(OP(=O)(O)O)cc3)NC(=O)OCc3ccccc3)C(=O)N21 (stereo partly drawn) [Example 16] | > 100 | > 100 | < 30 | 
28 | CNC(=O)[C@H](CCC(N)=O)NC(=O)[C@@H]1CC[C@@H]2CCCC[C@H](NC(=O)[C@H](Cc3ccc(OP(=O)(O)O)cc3)NC(=O)OCc3ccccc3)C(=O)N21 [Example 13] | > 100 | > 100 |  | < 1
29 | N=C(N)NCCC[C@H](NC(=O)[C@@H]1CC[C@@H]2CCCC[C@H](NC(=O)[C@@H](N)Cc3ccc(OP(=O)(O)O)cc3)C(=O)N21)C(=O)NCc1ccccc1 [Example 12] | > 100 | < 50 | > 5 | 
30 | O=C(O)CCc1ccc(CCC(=O)N[C@H]2CCCC[C@H]3CC[C@@H](C(=O)NCC[C@H](O)CO)N3C2=O)cc1 [Example 4] | > 100 | > 30 | > 100 | 
31 | NC(=O)CC[C@H](NC(=O)[C@@H]1CCC2CCCC[C@H](NC(=O)[C@@H](N)Cc3ccc(OP(=O)(O)O)cc3)C(=O)N21)C(=O)NCc1ccccc1 (stereo partly drawn) | > 100 | > 20 |  | < 1
32 | CC(=O)N[C@@H](Cc1ccc(OP(=O)(O)O)cc1)C(=O)N[C@H]1CCCC[C@H]2CC[C@@H](C(=O)N[C@@H](CCC(N)=O)C(=O)NCc3ccccc3)N2C1=O [Example 1] | > 100 | > 20 | < 1 | 
33 | CCCCCCCCCCCCCCCCN1CCN(CCC(=O)N[C@@H](Cc2ccc(OP(=O)(O)O)cc2)C(=O)N[C@H]2CCCCC3CC[C@@H](C(=O)NCCN4CCNC4=O)N3C2=O)CC1 (stereo partly drawn) | < 20 | < 30 | < 5 | 
34 | CNC(=O)[C@H](CCCN)NC(=O)[C@@H]1CC[C@@H]2CCCC[C@H](NC(=O)[C@H](Cc3ccc(OP(=O)(O)O)cc3)NC(=O)OCc3ccccc3)C(=O)N21 [Example 21] | > 100 | > 100 |  | < 10
